# Values of other authors, collected in publication PMC7968864, “Theory of Allosteric Regulation in Hsp70 Molecular Chaperones” (QRB Discovery, 2020).
# Columns and labels:
# [1] = system: WT DnaK; settings: fluorescence anisotropy, ref Wang et al., 2020
# [2] = system: I483D DnaK; parameters: method as in Wang et al., 2020; settings: fluorescein-labelled NR peptide 10 nM, fluorescence anisotropy, ref Wang et al., 2020
substance,measurement,setting,value
NRLLLTG [fluorescein-labelled NR peptide],peptide binding in ATP versus ADP (in words),[1],much reduced in the presence of ATP as compared to when with ADP
same,peptide binding in ADP (in words),[2],indistinguishable from that to WT when in ADP
